The format of series [1] is in vitro ADME. As to conditions: rat, microsomes, 0.25 h, pH 7.4. Here is the method:
Rat liver microsomes were isolated as described by Förlin (1980) Effects of Clophen A50, 3-methylcholantrene, pregnenolone-16aq-carbonitrile and Phenobarbital on the hepatic microsomal cytochrome P-450-dependent monooxygenaser system in rainbow trout, salmo garirdneri, of different age and sex. Tox Appl Pharm. 54(3) 420-430, with minor modifications e.g. 3 mL/g liver of a 0.1 M Na/K*PO4 buffer with 0.15 M KCl, pH 7.4, (buffer 1) was added before homogenisation, the homogenate was centrifuged for 20 minutes instead of 15, the supernatant was ultracentrifuged at 100.000 g instead of 105.000 g and the pellet from the ultracentrifugation was resuspended in 1 mL/g liver of 20% v/v 87% glycerol in buffer 1.
1 μL of, 0.2 or 1 mM test substance diluted in water and 10 μL 20 mg/mL rat liver micro-some were mixed with 149 μL 37° C. buffer 1 and the reaction was started by addition of 40 μL 4.1 mg/mL NADPH. After 0 or 15 minutes incubation at 37° C. in a heating block (LAB-LINE, MULTI-BLOK Heater or lab4you, TS-100 Thermo shaker at 700 rpm) the reaction was stopped by addition of 100 μL pure acetonitrile. The protein precipitation was then removed by rejecting the pellet after centrifugation at 10.000 g for 10 minutes (Heraeus, Biofuge fresco) in 4° C. The test compound was analysed using HPLC-MS (Hewlett-Packard 1100MSD Series) with a Zorbax SB-C18 column (2.1*150 mm, 5 μm) using 0.03% formic acid and acetonitrile as mobile phase (gradient) or a Zorbax Eclipse XDB-C18 (3*75 mm, 3.5 μm) using 0.03% acetic acid and acetonitrile as mobile phase (gradient). The 15 min turnover was calculated as the fraction of test compound eliminated after 15 minutes, expressed in percent of 0 min levels, ie 100*[conc test compound at 0 min−concentration at 15 min]/conc at 0 min.
Preparation of liver microsomes was performed as described in Förlin (1980). Protocols for incubation with liver microsomes are referred in Crespi et Stresser (2000), and Renwick et al (2001).

Series [2] relates to amphetamine-induced hyper-locomotion. The series is described as follows: Reduction of amphetamine-induced hyper-locomotion. The series is classed as in vivo, rat. The conditions noted are these: rats pretreated with d-amphetamine 1.5 mg/kg i.p., test compound s.c., last 45 minutes of one hour, range covers 95% of fits. The text has this: In this model, dopaminergic neurotransmission is increased by systemic administration of d-amphetamine at a dose that is sufficiently high to produce a large increase in locomotor activity. The ability of a compound to antagonize this hyperactivity reflects anti-dopaminergic properties, which are part of the dopaminergic stabiliser profile.
Photobeam sensors were spaced 2.5 cm apart.
For most compounds, the evaluation is based on 16 amphetamine pre-treated animals over the dose range 0, 11, 33 and 100 μmol/kg s.c. in one single experiment, with complementary doses in separate experiments. Calculations are based on distance during the last 45 minutes of one hour of measurement. The distances are normalised to amphetamine-control and fitted by least square minimization to the function “End-(End-Control)/(1+(dose/ED50)^Slope)”. […] To estimate confidence levels for the parameters, the fit is repeated 100 times with a random evenly distributed squared weight (0 to 1) for every measurement value. Presented ED50-ranges cover 95% of these values.

Series [3] concerns Locomotor activity in MK-801 pre-treated rats. The series is described as follows: Locomotor activity in MK-801 pre-treated rats. The conditions noted are these: for Locomotor activity, MK + example 100 μmol/kg: MK-801 0.7 mg/kg i.p. 90 minutes before test compound, recorded 30-60 minutes after administration.
Series [4] is described as follows: Oral bioavailability in rat. The series is classed as in vivo. The procedure: Experiments are performed 24 hours after implantation of arterial and venous catheters. Test compound is administered orally at 12.5 μmol/kg or intravenously at 5 μmol/kg using the venous catheters, n=3 per group. Arterial blood samples are then taken during […] at 0, 3, 9, 27, 60, 120, 180, 240, 300 and, 360 minutes after administration of the test compound. The oral bioavailability was calculated as the ratio of the AUC (Area under curve) obtained after oral administration over the AUC obtained after intravenous administration for each rat. The parameter AUC was calculated according to the following: AUC: the area under the plasma concentration versus time curve from time zero to the last concentration measured (Clast), calculated by the log/linear trapezoidal method.
The levels of test compound are measured by means of liquid chromatography-mass spectrometry (LC-MS). (Hewlett-Packard 1100MSD Series). The module include a quaternary pump system, vacuum degasser, thermostatted autosampler, thermostatted column compartment, diode array detector and API-ES spray chamber. […]
Extractions procedure: Plasma samples (0.25-0.5 ml) were diluted with water to 1 ml, and 60 pmol (100 μl) internal standard (−)-OSU6241 was added. […] The selective ion (MH^+) was monitored for each Example, and MH^+ 296 for (−)-OSU6241 ((3-[3-(ethylsulfonyl)phenyl]-1-propylpiperidine). […]

The subject of series [5] is DOPAC (3,4-dihydroxyphenylacetic acid) in the rat striatum. The series is described as follows: Increase of DOPAC in the rat striatum after systemic administration (in vivo neurochemistry). As to conditions: sc, maximal effects limited to 350-400% of control, range covers 95% of fits, Inactive = inactive at 100 μmol/kg. The text has this:
After the behavioural activity sessions, the rats were decapitated and their brains rapidly taken out and put on an ice-cold petri-dish. The limbic forebrain, the striatum, the frontal cortex and the remaining hemispheral parts of each rat were dissected and frozen. Each brain part was subsequently analyzed with respect to its content of monoamines and their metabolites.
The monoamine transmitter substances (NA (noradrenaline), DA (dopamine), 5-HT (serotonin)) as well as their amine (NM (normethanephrine), 3-MT (3-methoxytyramine)) and acid (DOPAC (3,4-dihydroxyphenylacetic acid), 5-HIAA (5-hydroxyindoleacetic acid), HVA (homovanillic acid)) metabolites are quantified in brain tissue homogenates by HPLC separations and electrochemical detection.
The analytical method is based on two chromatographic separations dedicated for amines or acids. Two chromatographic systems share a common auto injector with a 10-port valve and two sample loops for simultaneous injection on the two systems. Both systems are equipped with a reverse phase column (Luna C18(2), dp 3 μm, 50*2 mm i.d., Phenomenex) and electrochemical detection is accomplished at two potentials on glassy carbon electrodes (MF-1000, Bioanalytical Systems, Inc.). Via a T-connection the column effluent is passed to the detection cell or to waste. This is accomplished by two solenoid valves, which block either the waste or detector outlet. By not letting the chromatographic front reach the detector, better detection conditions are achieved. The aqueous mobile phase (0.4 ml/min) for the acid system contains Citric Acid 14 mM, Sodium Citrate 10 mM, MeOH 15% (v/v) and EDTA 0.1 mM. Detection potentials relative to Ag/AgCl reference is 0.45 and 0.60V. The aqueous ion pairing mobile phase (0.5 ml/min) for the amine system contains Citric Acid 5 mM, Sodium Citrate 10 mM, MeOH 9% (v/v), MeCN 10.5% (v/v), Decane Sulfonic Acid 0.45 mM, and EDTA 0.1 mM. Detection potentials relative to Ag/AgCl reference is 0.45 and 0.65V.
ED50 values for the increase of DOPAC in striatum are calculated by curve fitting. For most compounds, the evaluation is based on 20 animals over the dose range 0, 3.7, 11, 33 and 100 μmol/kg s.c. in one single experiment. The DOPAC levels are normalised to control and fitted by least square minimization to the function “End-(End-Control)/(1+(dose/ED50)^Slope)”. The four parameters are fitted with the restrictions: ED50>0, 0.5<Slope<3, 350<End<400 or End=200% of control (see table 1). To estimate confidence levels for the parameters, the fit is repeated 100 times with a random evenly distributed squared weight (0 to 1) for every measurement value. Presented ED50-ranges cover 95% of these values.

Another series concerns the target hERG ion channel (Homo sapiens, UniProt Q12809). The series is described as follows: Rb efflux through the hERG ion channel. The series is classed as cell-based. As to conditions: Rb efflux method. The text has this:
The substances according to the present invention display a low potency at inhibiting the hERG channel, as measured by IC50 in a Rb+ efflux assay (Development and evaluation of high throughput functional assay methods for hERG potassium channel. Tang W, Kang 1, Wu X, Rampe D, Wang L, Shen H, Li Z, Dunnington D, Garyantes T. J Biomol Screen. 2001 October; 6(5):325-31), indicating a low risk for QT interval prolongation and arrhythmia in man.
(hERG is a cardiac potassium channel; its block is linked to QT prolongation.)

The values below come from patent publication US7579474B2, “Substituted piperidines as modulators of dopamine neurotransmission” (NSAB, Filial AF Neurosearch AB, Sverige, priority 2004, dated 2009).

SMILES strings stand for the structures. Where “and” joins values, the source holds several entries; their conditions need not be identical. Identical values can stand only once. Like-named read-outs stand apart in the source and are kept apart here.

hERG ion channel, sequence (Q12809 whole entry): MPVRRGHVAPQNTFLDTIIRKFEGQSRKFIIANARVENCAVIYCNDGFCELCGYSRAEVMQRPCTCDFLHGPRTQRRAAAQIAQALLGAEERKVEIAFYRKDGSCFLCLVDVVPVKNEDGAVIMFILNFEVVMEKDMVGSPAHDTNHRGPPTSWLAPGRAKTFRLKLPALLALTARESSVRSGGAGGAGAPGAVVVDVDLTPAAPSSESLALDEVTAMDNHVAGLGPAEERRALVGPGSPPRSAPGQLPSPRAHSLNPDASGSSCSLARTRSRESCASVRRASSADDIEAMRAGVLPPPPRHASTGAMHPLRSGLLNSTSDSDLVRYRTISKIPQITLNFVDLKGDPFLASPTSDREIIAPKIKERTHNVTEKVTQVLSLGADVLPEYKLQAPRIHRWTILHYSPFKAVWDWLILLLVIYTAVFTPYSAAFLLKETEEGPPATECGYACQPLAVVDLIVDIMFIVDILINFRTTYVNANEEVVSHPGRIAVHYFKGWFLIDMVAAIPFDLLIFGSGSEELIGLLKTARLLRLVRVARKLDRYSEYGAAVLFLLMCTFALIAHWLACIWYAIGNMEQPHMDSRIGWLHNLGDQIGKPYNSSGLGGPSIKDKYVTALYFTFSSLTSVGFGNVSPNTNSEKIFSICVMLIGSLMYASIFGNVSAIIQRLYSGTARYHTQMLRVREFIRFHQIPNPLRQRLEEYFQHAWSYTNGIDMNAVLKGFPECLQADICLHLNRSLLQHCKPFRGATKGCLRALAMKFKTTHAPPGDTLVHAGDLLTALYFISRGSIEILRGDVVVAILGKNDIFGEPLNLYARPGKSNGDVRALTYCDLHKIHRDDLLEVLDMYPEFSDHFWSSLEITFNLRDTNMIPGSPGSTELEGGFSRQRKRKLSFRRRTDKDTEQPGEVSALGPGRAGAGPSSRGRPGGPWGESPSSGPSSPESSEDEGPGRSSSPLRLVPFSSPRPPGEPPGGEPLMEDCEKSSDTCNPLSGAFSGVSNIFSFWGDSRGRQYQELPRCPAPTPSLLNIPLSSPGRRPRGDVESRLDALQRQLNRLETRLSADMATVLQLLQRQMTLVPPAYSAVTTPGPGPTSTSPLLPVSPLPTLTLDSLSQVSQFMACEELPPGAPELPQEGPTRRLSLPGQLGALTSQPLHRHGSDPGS

For `CCCN1CCC(O)(c2cccc(C(F)(F)F)c2F)CC1` [Example 1, 4-[2-FLUORO-3-(TRIFLUOROMETHYL)PHENYL]-1-PROPYLPIPERIDIN-4-OL], in series [1], the “turnover at 15 minutes” value stood at 27%.
Turning to `CCCN1CCC(c2ccc(F)c(C(F)(F)F)c2)CC1`, the ED50 in series [2] (Rattus norvegicus) worked out at 30 µmol/kg.
In the case of `COc1cccc(C2(O)CCN(C)CC2)c1OC`, the “ED50 reduction of amphetamine-induced hyper-locomotion” value in series [2] is “inactive”.
For `CCCN1CCC(O)(c2cccc(Cl)c2Cl)CC1` [drawing 57], the “Locomotor activity, MK + example 100 μmol/kg” value in series [3] is 9564 ± 4584 (P =0.16) counts/30 min ± SEM.
On the same count and under the same terms, in the case of `CCCN1CCC(O)(c2ccc(F)c(C(F)(F)F)c2)CC1` [drawing 58] it was 7312 ± 4537 (P =0.0005) counts/30 min ± SEM.
`CCCN1CCC(O)(c2ccc(F)c(C(F)(F)F)c2)CC1` [Example 8, 4-[4-FLUORO-3-(TRIFLUOROMETHYL)PHENYL]-1-PROPYLPIPERIDIN-4-OL]: the bioavailability in series [4] (plasma, oral 12.5 μmol/kg vs i.v. 5 μmol/kg, AUC ratio, read-out: oral bioavailability) is about 29%. The “turnover at 15 minutes” value in series [1] is reported as 29%.
Take `COCCN1CCC(O)(c2ccc(Cl)c(C(F)(F)F)c2)CC1` [drawing 59]: the “Locomotor activity, MK + example 100 μmol/kg” value in series [3] is reported as 7407 ± 3282 (P =0.00003) counts/30 min ± SEM.
Take `CCN1CCC(O)(c2cccc(C(F)(F)F)c2F)CC1` [Example 3, 4-[2-FLUORO-3-(TRIFLUOROMETHYL)PHENYL]-1-ETHYLPIPERIDIN-4-OL]: the bioavailability in series [4] (in vivo) is about 80%. Besides, the “turnover at 15 minutes” value in series [1] stood at 8%.
Regarding `CCCN1CCC(O)(c2cccc(C(F)(F)F)c2F)CC1` [drawing 55], in series [3], the “Locomotor activity, MK + example 100 μmol/kg” value was 17802 ± 6842 (P = 0.09) counts/30 min ± SEM.
Regarding `CCCN1CCC(O)(c2cccc(C(F)(F)F)c2F)CC1` [drawing 25], it took a dose of 13 µmol/kg to reach the 50% effect level in series [5] (ED50). Besides, at hERG ion channel, the IC50 amounted to 161 µM.
For `C[C@]12N[C@H](Cc3ccccc31)c1ccccc12` [MK-801, reference compound], in series [3] (MK-801 alone, 0.7 mg/kg i.p., recorded 30-60 minutes, one group per experiment, 0.7 mg/kg), the “Locomotor activity, MK-801 0.7 mg/kg i.p.” value is 40367 ± 9127 counts/30 min ± SEM and 32169 ± 10605 counts/30 min ± SEM and 30819 ± 12771 counts/30 min ± SEM and 42061 ± 2219 counts/30 min ± SEM and 58370 ± 3007 counts/30 min ± SEM.
Take `CCN1CCC(O)(c2cccc(C(F)(F)F)c2F)CC1` [drawing 56]: in series [3], the “Locomotor activity, MK + example 100 μmol/kg” value is 18307 ± 7375 (P =0.3) counts/30 min ± SEM.
In the case of `CCCN1CCC(c2cccc(C(F)(F)F)c2F)CC1` [reference compound], it took a dose of 9 µmol/kg to reach the 50% effect level in series [5] (ED50). In addition, inhibition at hERG ion channel was half-maximal at 7.97 µM (IC50).
In the case of `CCCN1CCC(O)(c2cccc(S(C)(=O)=O)c2)CC1` [drawing 51], the “ED50 reduction of amphetamine-induced hyper-locomotion” value in series [2] was “inactive”.

One may read the ED50 as the midpoint of the dose-response relation. In general, bioavailability refers to the share of a dose that reaches the circulation, judged against a reference dose that is usually intravenous. What is called IC50 is the concentration needed to halve the response being measured.
